# Experimental data published in patent US20180214430A1, “Selective Inhibitors Of i-NOS For Use Against Viral Infection” (priority 2015, published 2018).
# “Also recorded” adds a separate entry of the source. Like-named read-outs stand apart in the source and are kept apart here. Marks after values point to notes of the source that are not given here.
# Legend:
# RSV [1] = experiment: RSV replication in A549 epithelial cell cultures (number of infected cells, immunofluorescence); format: cell-based, respiratory syncytial virus (A2) Long strain; conditions: for IC50: read-out: IC50 on RSV replication (concentration needed to give a 50% reduction in number of infected cells/well)
# total lung NOS activity = experiment: Mouse infection model: nitrite concentration of lung homogenate; format: in vivo, balb/c mice; conditions: 10 mg/kg i.p. every 12 h
# influenza virus = experiment: microbe, parasite or virus in culture; format: cell-based, Human influenza virus A/Puerto Rico/8/34 (H1N1)
# A549 cells = experiment: Cytotoxicity assay (LDH in cell culture supernatant); format: cell-based, human; conditions: uninfected and RSV infected A549 cells, concentration series
# Method: To determine the level of cell damage following infection, 50 μl of the culture supernatant from each well were transferred to the corresponding well in 96 well microtitre plate. The LDH activity of the supernatant was measured by a LDH Assay kit, according to the manufacturer's instructions (Sigma, UK). 100 μl of LDH Assay solution was added to each well and the plate was incubated for 30 min at room temperature. After incubation, the absorbance was measured at two wavelengths, 490 nm (measurement) and 690 nm (reference), using a microplate reader (BioRad Laboratories, Hercules, Calif., USA). The percent LDH release was calculated by measuring the LDH content of lysed cells that remained attached to the plate.
# To determine whether the concentration series of 1400 W we used was toxic to the A549 cells, and to eliminate the possibility that the reduction in viral antigen was due to toxicity, the concentration of lactate dehydrogenase (LDH) in the cell culture supernatant was measured. LDH is an enzyme that is only released by cells when the cell membrane integrity is reduced. Therefore the concentration of LDH in the cell culture supernatant is directly correlated to cell death.
# RSV [2] = experiment: Mouse infection model: viral load of the lungs (plaque assay); format: in vivo, balb/c mice; conditions: 10 mg/kg i.p. every 12 h
# [3] = tested on: NO production by RSV infected A549 epithelial cells; experiment: Nitric oxide released into cell culture supernatant of RSV infected cells (chemiluminescence); format: cell-based, human; conditions: for NO production by these cells: epithelial cells, qualitative statement
# [4] = tested on: respiratory syncytial virus; conditions: mouse model of respiratory syncytial virus; cited from earlier work
# [5] = epithelial cells, qualitative statement
# [6] = A549 cells, RPMI (1.15 mM L-Arg), after 24 h, ± 95% CI
# [7] = RSV infected mice, day 3, 10 mg/kg
# [8] = RSV infected mice, day 3, listed as 1400 W, 10 mg/kg
smiles,measurement,setting,value
"CC(=O)N[C@H](C(=O)O)C(C)(C)SN=O (racemic) [SNAP, S-nitroso-N-acetylpenicillamine]",viral (RSV) replication,RSV [1]; [5],did not affect
CC(=N)NCc1cccc(CN)c1 [1400W],number of RSV-infected cells,"RSV [1]; A549 cells, 24 hrs, concentrations above 1 mM",significantly decreased
same,IC50,RSV [1]; [6],1100 ± 500 µM
same,viral (RSV) replication,RSV [1]; [5],strongly inhibited
same,Nitrite lung homogenate,"total lung NOS activity; Mock infected mice, day 3",26.0 (5.4) uM
same,Nitrite lung homogenate,"total lung NOS activity; Mock infected mice, day 5",21.6 (3.0) uM
same,Nitrite lung homogenate,total lung NOS activity; [7],16.7 (1.9)* uM
same,Nitrite lung homogenate,total lung NOS activity; [8],significantly reduced
same,Nitrite lung homogenate,"total lung NOS activity; RSV infected mice, day 5",23.7 (3.3) uM
same,IC50,"influenza virus; A549 cells, DMEM (0.35 mM L-Arg), after 24 h, ± 95% CI, read-out: IC50 on influenza virus replication (concentration needed to give a 50% reduction in number of infected cells/well)",3700 ± 1000 µM
same,IC50,"influenza virus; A549 cells, RPMI (1.15 mM L-Arg), after 24 h, ± 95% CI, read-out: IC50 on influenza virus replication (concentration needed to give a 50% reduction in number of infected cells/well)",4600 ± 900 µM
same,toxicity: amount of LDH in the cell culture supernatant,A549 cells,not affected; also recorded: not toxic
same,Log10 pfu per gram lung,"RSV [2]; Mock infected mice, day 3",<0.18 Log10 pfu per gram lung
same,Log10 pfu per gram lung,"RSV [2]; Mock infected mice, day 5",<0.18 Log10 pfu per gram lung
same,Log10 pfu per gram lung,RSV [2]; [7],0.51 ± 0.17 Log10 pfu per gram lung
same,Log10 pfu per gram lung,RSV [2]; [8],significantly lower
same,Log10 pfu per gram lung,"RSV [2]; RSV infected mice, day 5",1.18 ± 0.92 Log10 pfu per gram lung
same,amount of NO released into the cell culture supernatant,"[3]; RSV infected A549 cells, concentrations above 1 mM",significant decrease
same,NO production by these cells,[3],reduction
"CC1CCN=C(N)S1 (stereo not drawn) [AMT, 2-amino-5,6-dihydro-6-methyl-4H-1,3-thiazine]",viral titres,[4],increase
COc1ccnc(CCc2nc3ncccc3[nH]2)c1 [BYK191023],viral (RSV) replication,RSV [1]; [5],strongly inhibited
same,IC50,"RSV [1]; human respiratory syncytial virus, A549 cells, RPMI (1.15 mM L-Arg), after 24 h, ± 95% CI",1100 ± 500 µM
same,IC50,"influenza virus; unidentified influenza virus, A549, 24 h, read-out: IC50 on influenza virus replication (concentration needed to give a 50% reduction in number of infected cells/well), A549 cells, DMEM (0.35 mM L-Arg), after 24 h, ± 95% CI",4800 ± 400 µM
same,IC50,"influenza virus; unidentified influenza virus, A549, 24 h, read-out: IC50 on influenza virus replication (concentration needed to give a 50% reduction in number of infected cells/well), A549 cells, RPMI (1.15 mM L-Arg), after 24 h, ± 95% CI",4300 ± 800 µM
same,NO production by these cells,[3],reduction
COC(=O)[C@@H](N)CCCNC(=N)N[N+](=O)[O-] [L-NAME],IC50 on RSV replication (concentration needed to give a 50% reduction in number of infected cells/well),RSV [1]; [6],No effect
same,viral (RSV) replication,RSV [1]; [5],did not inhibit; also recorded: not to inhibit
same,IC50 on influenza virus replication (concentration needed to give a 50% reduction in number of infected cells/well),influenza virus; [6],No effect
N=C(N)NCCC[C@H](N)C(=O)O [L-arginine],IC50 on RSV replication (concentration needed to give a 50% reduction in number of infected cells/well),RSV [1]; [6],No inhibitory
"Cl.N=c1c[n+](N2CCOCC2)[n-]o1 [SIN-1, 3-morpholinosydnonimine hydrochloride]",viral (RSV) replication,RSV [1]; [5],did not affect
NCCCNCCCCN(CCCN)/[N+]([O-])=N/O [Spermine (NONOate)],viral (RSV) replication,RSV [1],inhibit
same,IC50,RSV [1],1500 ± 500 µM
same,IC50,influenza virus; read-out: IC50 on influenza virus replication (concentration needed to give a 50% reduction in number of infected cells/well),600 ± 400 µM
